Our source for the LC retention time values is the RepoRT retention time repository (doi:10.1021/acs.analchem.2c02893).

This data set in a line: RP, Thermo Scientific Acclaim RSLC 120 C18, 100 × 2.1 mm, 2.2 µm, 30 °C, 0.2 mL/min, estimated dead time 1.1 min; A: 90% water + 10% methanol + 0.01% formic acid + 5 mM ammonium formate, pH 3.61; B: methanol + 0.01% formic acid + 5 mM ammonium formate, pH 3.61; gradient (min/%B) 0/1 1/1 2/39 13/99.9 15/99.9 15.1/1 20.1/1. The conditions noted are these: stereoisomer not certain.

Molecules are shown by their SMILES.

`CC(CCCNCCO)Nc1ccnc2cc(Cl)ccc12` (stereo not drawn) [Chloroquine-Desethylhydroxy]: the LC retention time was 3.88 min.
With `CCN(CCO)CCCC(C)Nc1ccnc2cc(Cl)ccc12` (stereo not drawn) [Chloroquine-Hydroxy] the figure was 3.98 min; with `CCN(CC)CCCC(C)Nc1ccnc2cc(Cl)ccc12` (stereo not drawn) [Chloroquine], 4.16 min; with `NC(=S)c1c(Cl)cccc1Cl` [Chlorothiamide], 5.69 min.
With `Cc1ccc(NC(=O)N(C)C)cc1Cl` [Chlorotoluron] the figure was 7.98 min; with `CN(C)C(=O)Nc1ccc(Oc2ccc(Cl)cc2)cc1` [Chloroxuron (Chloroxifenidim)], 9.99 min; with `CN(C)CCN1c2ccccc2Sc2ccc(Cl)cc21` [Chlorphenethazine], 8.49 min.
With `CN(C)CCC(c1ccc(Cl)cc1)c1ccccn1` (stereo not drawn) [Chlorpheniramine] the figure was 6.25 min; with `CN(C)CCCN1c2ccccc2Sc2ccc(Cl)cc21` [Chlorpromazine], 8.89 min; with `CCCNC(=O)NS(=O)(=O)c1ccc(Cl)cc1` [Chlorpropamide], 7.19 min.
With `CC(C)OC(=O)Nc1cccc(Cl)c1` [Chlorpropham], the LC retention time was 9.78 min.
For the compound `CN(C)CCC=C1c2ccccc2Sc2ccc(Cl)cc21` [Chlorprotixene], the LC retention time is 8.99 min.
With `COP(=S)(OC)Oc1nc(Cl)c(Cl)cc1Cl` [Chlorpyriphos-methyl] the figure was 11.7 min.
Turning to `CCOP(=S)(OCC)Oc1nc(Cl)c(Cl)cc1Cl` [Chlorpyriphos], the LC retention time is 12.7 min.
Take `COc1nc(C)nc(NC(=O)NS(=O)(=O)c2ccccc2Cl)n1` [Chlorsulfuron]: the LC retention time was 6.54 min.
As to `CN(C)C1C(=O)C(C(N)=O)=C(O)C2(O)C(=O)C3=C(O)c4c(O)ccc(Cl)c4C(C)(O)C3CC12` (stereo not drawn) [Chlortetracycline], the LC retention time is 4.5 min.
With `COC(=O)c1c(Cl)c(Cl)c(C(=O)OC)c(Cl)c1Cl` [Chlorthal-dimethyl (DCPA. Dacthal) (NH4)] the figure was 11.6 min.
With `NS(=O)(=O)c1cc(C2(O)NC(=O)c3ccccc32)ccc1Cl` (stereo not drawn) [Chlorthalidone] the figure was 5.06 min; with `COP(=S)(OC)Oc1ccc([N+](=O)[O-])c(Cl)c1` [Chlorthion], 10.2 min; with `Cc1cc(C)cc(C(=O)N(NC(=O)c2ccc3c(c2C)CCCO3)C(C)(C)C)c1` [Chromafenozide], 9.93 min.
Under `CC1(C)CC1C(=O)NC(=CCCCCSCC(N)C(=O)O)C(=O)O` (stereo not drawn) [Cilastatin] stands 4.88 min; under `CCOC(=O)C(CCc1ccccc1)NC1CCCN2CCCC(C(=O)O)N2C1=O` (stereo not drawn) [Cilazapril], 7.94 min; under `CCOC(=O)C(Cl)=Cc1cc(N2C(=O)C3=C(CCCC3)C2=O)ccc1Cl` [Cinidon-ethyl], 12.4 min.
As to `CCCc1nn(C)c2c(=O)[nH]c(-c3cc(C(=O)CN4CCN(CC=Cc5ccccc5)CC4)ccc3OCC)nc12` [Cinnamyldenafil], the LC retention time is 9.28 min.
With `C(=Cc1ccccc1)CN1CCN(C(c2ccccc2)c2ccccc2)CC1` [Cinnarizine], the LC retention time is 9.86 min.
Regarding `COCCOc1ccccc1S(=O)(=O)NC(=O)Nc1nc(OC)nc(OC)n1` [Cinosulfuron], the LC retention time was 6.36 min.
For `CCn1nc(C(=O)O)c(=O)c2cc3c(cc21)OCO3` [Cinoxacin], the LC retention time was 5.32 min.
With `COc1cc(N)c(Cl)cc1C(=O)NC1CCN(CCCOc2ccc(F)cc2)CC1OC` (stereo not drawn) [Cisapride] the figure was 6.73 min; with `CN(C)CCCC1(c2ccc(F)cc2)OC(=O)c2cc(C#N)ccc21` (stereo not drawn) [Citalopram 3-oxo], 6.6 min.
On to `C[N+](C)([O-])CCCC1(c2ccc(F)cc2)OCc2cc(C#N)ccc21` (stereo not drawn) [Citalopram N-oxide], for which the LC retention time is 7.1 min.
Under `CN(C)CCCC1(c2ccc(F)cc2)OCc2cc(C(N)=O)ccc21` (stereo not drawn) [Citalopram amide] stands 5.15 min; under `CN(C)CCCC1(c2ccc(F)cc2)OCc2cc(C(=O)O)ccc21` (stereo not drawn) [Citalopram carboxylic acid], 5.83 min.
On to `CN(C)CCCC1(c2ccc(F)cc2)OCc2cc(C#N)ccc21` (stereo not drawn) [Citalopram], for which the LC retention time was 6.59 min.
With `CCC1OC(=O)C(C)C(OC2CC(C)(OC)C(O)C(C)O2)C(C)C(OC2OC(C)CC(NC)C2O)C(C)(OC)CC(C)C(=O)C(C)C(O)C1(C)O` (stereo not drawn) [Clarithromycin-N-desmethyl] the figure was 9.16 min; with `CCC1OC(=O)C(C)C(OC2CC(C)(OC)C(O)C(C)O2)C(C)C(OC2OC(C)CC(N(C)C)C2O)C(C)(OC)CC(C)C(=O)C(C)C(O)C1(C)O` (stereo not drawn) [Clarithromycin], 9.18 min; with `CN1CCCC1CCOC(C)(c1ccccc1)c1ccc(Cl)cc1` (stereo not drawn) [Clemastine], 9.31 min.
With `CC(C)(C)NCC(O)c1cc(Cl)c(N)c(Cl)c1` (stereo not drawn) [Clenbuterol] the figure was 4.76 min.
With `CNC(C)C(=O)c1ccc(Cl)cc1` (stereo not drawn) [Clephedrone (4-Chloromethcathinone)] the figure was 4.91 min; with `CC(CC(=O)Nc1ccc(Cl)cc1Cl)N1CCCCC1` (stereo not drawn) [Clibucaine], 6.27 min; with `C[N+]12CCC(CC1)C(OC(=O)C(O)(c1ccccc1)c1ccccc1)C2` (stereo not drawn) [Clidinium (I+)], 5.84 min.
Consider `CC(C)(C)C(=O)C(Oc1ccc(Cl)cc1)n1ccnc1` (stereo not drawn) [Climbazole], for which the LC retention time is 10.1 min.
In the case of `CCCC1CC(C(=O)NC(C(C)Cl)C2OC(SC)C(O)C(O)C2O)N(C)C1` (stereo not drawn) [Clindamycin], the LC retention time is 6.92 min.
With `CN1C(=O)CC(=O)N(c2ccccc2)c2cc(Cl)ccc21` [Clobazam] the figure was 8.08 min.
Under `CN(C)CCN1C(=O)c2ccccc2Nc2cc(Cl)ccc21` [Clobenzepam] stands 6.32 min; under `CC(Cc1ccccc1)NCc1ccccc1Cl` (stereo not drawn) [Clobenzorex], 6.82 min.
Under `CCC(=O)OC1(C(=O)CCl)C(C)CC2C3CCC4=CC(=O)C=CC4(C)C3(F)C(O)CC21C` (stereo not drawn) [Clobetasol propionate] stands 10.6 min; under `CC1CC2C3CCC4=CC(=O)C=CC4(C)C3(F)C(O)CC2(C)C1(O)C(=O)CCl` (stereo not drawn) [Clobetasol], 9.44 min.
Regarding `CCCC(=O)OC1(C(=O)CCl)C(C)CC2C3CCC4=CC(=O)C=CC4(C)C3(F)C(=O)CC21C` (stereo not drawn) [Clobetasone butyrate], the LC retention time is 11.3 min.
With `CC(CN(C)C)C(C)(O)Cc1ccc(Cl)cc1` (stereo not drawn) [Clobutinol] the figure was 6.31 min.
Under `C#CCOC(=O)C(C)Oc1ccc(Oc2ncc(Cl)cc2F)cc1` (stereo not drawn) [Clodinafop-propargyl] stands 10.7 min; under `Clc1ccccc1-c1nnc(-c2ccccc2Cl)nn1` [Clofentezine], 11.5 min; under `CCOC(=O)C(C)(C)Oc1ccc(Cl)cc1` [Clofibrate], 11 min.
In the case of `CC1(C)CON(Cc2ccccc2Cl)C1=O` [Clomazone  (Command)], the LC retention time is 8.89 min.
